Results as given in patent US9718835B2 (China Medical University Hospital, priority 2013, dated 2017).
Read-outs that look alike come from different tables or passages of the source.

Columns and labels:
A-549 (lung carcinoma) = assay: Sulforhodamine B cytotoxicity assay, A-549; assay type: cell-based, human; details: Table 1; 72 h; average ± SD
Excerpt: (§1) The human tumor cell lines used in this manuscript were A-549 (lung carcinoma), MDA-MB-231 (triple-negative breast cancer), DU-145 (hormone-insensitive prostate cancer), KB (originally isolated from epidermoid carcinoma of the nasopharynx), KBvin (vincristine-resistant KB subline), and HCT116 (colorectal adenocarcinoma). These cell lines were obtained from the Lineberger Comprehensive Cancer Center (UNC-CH) or from ATCC (Manassas, Va.), except KBvin, which was a generous gift of Professor Y.-C. Cheng (Yale University). All cell lines were maintained and assayed in RPMI-1640 medium containing 2 mM L-glutamine and 25 mM HEPES (HyClone), supplemented with 10% heat-inactivated fetal bovine serum (HyClone), 100 μg/mL streptomycin, 100 IU/mL penicillin, and 0.25 μg/mL amphotericin B (Cellgro) in a humidified atmosphere containing 5% CO2 in air. […] The 4-6×10^3 cells/well were cultured for 72 h with various concentrations of test compounds in 96-well plate at 37° C. […] Each assay was performed in triplicate with duplicated samples.

[1] = system: DU-145 (hormone-insensitive prostate cancer); assay: Sulforhodamine B cytotoxicity assay, DU-145; assay type: cell-based, human; details: Table 1; 72 h; average ± SD
Procedure: (§2) The 12 novel 1-derivatives 9a-l were evaluated for in vitro antiproliferative activity against four human tumor cell lines, KB (nasopharyngeal), A-549 (lung), DU-145 (prostate), and KBvin (MDR KB subline), by using a sulforhodamine B colorimetric assay with triplicate experiments.^30 Compounds 1 and 3 were used as controls.
(§3) The human tumor cell lines used in this manuscript were A-549 (lung carcinoma), MDA-MB-231 (triple-negative breast cancer), DU-145 (hormone-insensitive prostate cancer), KB (originally isolated from epidermoid carcinoma of the nasopharynx), KBvin (vincristine-resistant KB subline), and HCT116 (colorectal adenocarcinoma). These cell lines were obtained from the Lineberger Comprehensive Cancer Center (UNC-CH) or from ATCC (Manassas, Va.), except KBvin, which was a generous gift of Professor Y.-C. Cheng (Yale University). All cell lines were maintained and assayed in RPMI-1640 medium containing 2 mM L-glutamine and 25 mM HEPES (HyClone), supplemented with 10% heat-inactivated fetal bovine serum (HyClone), 100 μg/mL streptomycin, 100 IU/mL penicillin, and 0.25 μg/mL amphotericin B (Cellgro) in a humidified atmosphere containing 5% CO2 in air. Compound stock solutions were prepared at 10 mM in DMSO and diluted with culture medium with the final DMSO concentration ≦0.01% (v/v), a concentration without effect on cell growth. The 4-6×10^3 cells/well were cultured for 72 h with various concentrations of test compounds in 96-well plate at 37° C. […] Each assay was performed in triplicate with duplicated samples.

[2] = system: KB (epidermoid carcinoma of the nasopharynx); assay: Sulforhodamine B cytotoxicity assay, KB; assay type: cell-based, human; details: Table 1; 72 h; average ± SD; read-out: IC50 KB
Procedure: as §2, §3

[3] = system: KBvin (vincristine-resistant KB subline); assay: Sulforhodamine B cytotoxicity assay, KBvin; assay type: cell-based, human; details: Table 1; 72 h; average ± SD; read-out: IC50 KBvin
Excerpt: as §1

[4] = system: MDA-MB-468 (Breast cancer); assay: cells; assay type: cell-based, human
SKOV3 (Ovary cancer) = assay: cells; assay type: cell-based, human
HCT 116 (Colon cancer) = assay: cells; assay type: cell-based, human
A549 (Lung cancer) = assay: cells; assay type: cell-based, human
[5] = biological target: T1, recombinant human Topoisomerase I (Homo sapiens, UniProt P11387); assay: Topoisomerase I activity assay in a cell-free system; assay type: biochemical; details: purified recombinant human Topo I
T1 construct: purchased TopoGEN
T1 sequence (P11387 1-765): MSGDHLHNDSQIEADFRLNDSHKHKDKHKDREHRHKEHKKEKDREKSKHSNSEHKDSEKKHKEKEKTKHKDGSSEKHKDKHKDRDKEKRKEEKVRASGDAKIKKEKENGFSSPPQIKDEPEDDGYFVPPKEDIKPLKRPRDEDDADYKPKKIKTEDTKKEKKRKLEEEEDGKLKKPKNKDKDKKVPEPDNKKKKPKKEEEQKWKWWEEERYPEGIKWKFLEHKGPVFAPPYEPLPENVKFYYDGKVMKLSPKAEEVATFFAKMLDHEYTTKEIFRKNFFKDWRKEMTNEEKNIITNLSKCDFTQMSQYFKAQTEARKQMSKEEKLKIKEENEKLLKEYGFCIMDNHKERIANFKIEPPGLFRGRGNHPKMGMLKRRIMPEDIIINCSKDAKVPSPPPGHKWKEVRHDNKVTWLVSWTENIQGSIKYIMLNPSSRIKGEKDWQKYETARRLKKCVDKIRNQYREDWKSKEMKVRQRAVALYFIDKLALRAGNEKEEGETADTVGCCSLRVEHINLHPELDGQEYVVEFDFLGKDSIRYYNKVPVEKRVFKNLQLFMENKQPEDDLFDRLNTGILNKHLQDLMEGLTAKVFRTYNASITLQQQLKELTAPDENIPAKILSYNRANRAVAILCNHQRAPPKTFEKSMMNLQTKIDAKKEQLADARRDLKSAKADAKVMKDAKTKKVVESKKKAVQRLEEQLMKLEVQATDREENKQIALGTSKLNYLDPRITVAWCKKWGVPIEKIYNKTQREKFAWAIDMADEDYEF
Procedure: Inhibition of Topo I activity by 9a in a cell-free system. A 1-delivative with an esterified 20-hydroxy group is expected to be activated by digestion with carboxylesterases. […] We authenticated the inhibitory effect of 9a against Topo I in a dose-dependent manner Thus, we confirmed that 9a is a new class of Topo I inhibitor.
One unit of recombinant human Topoisomerase I enzyme (TopoGEN) was pre-incubated for 20 min at 37° C. with vehicle, 9a, 1, 3, or SN-38 in a final volume of 20 μL reaction buffer (10 mM Tris-HCl, pH 7.9, 1 mM EDTA, 150 mM NaCl, 0.1% BSA, 0.1 mM spermidine, 5% glycerol) was then incubated with 250 ng of supercoiled plasmid DNA for 20 min. The supercoiled, relaxed, or nicked DNA was separated by 1% agarose gel in 1×TAE (Tris-Acetate-EDTA) buffer. Ethidium bromide stained agarose gel was photographed using Gel Doc XR (Bio-Rad).

[6] = Homo sapiens, MDA-MB-468, Table 6, read-out: In vitro cytotoxicity MDA-MB-468 (Breast cancer)
[7] = Homo sapiens, SK-OV-3, Table 6, read-out: In vitro cytotoxicity SKOV3 (Ovary cancer)
[8] = Homo sapiens, HCT-116, Table 6, read-out: In vitro cytotoxicity HCT 116 (Colon cancer)
[9] = Homo sapiens, A549, Table 6, read-out: In vitro cytotoxicity A549 (Lung cancer)

SMILES | IC50 (A-549 (lung carcinoma)) | IC50 [1] | IC50 [2] | IC50 [3] | other results
CC[C@@]1(OC(=O)C(Cc2ccccc2)NC(CCO)=NS(=O)(=O)c2ccc(C)cc2)C(=O)OCc2c1cc1n(c2=O)Cc2cc3ccccc3nc2-1 (stereo partly drawn) [Compound 9l] | 83 ± 10 nM | 200 ± 13 nM | 310 ± 21 nM | 140 ± 8.1 nM | –
CC[C@@]1(OC(=O)C(C)NC(Cc2ccc(OC)cc2)=NS(=O)(=O)c2ccc(C)cc2)C(=O)OCc2c1cc1n(c2=O)Cc2cc3ccccc3nc2-1 (stereo partly drawn) [Compound 9c] | 89 ± 8.3 nM | 140 ± 5.9 nM | 910 ± 60 nM | 87 ± 8.7 nM | –
CC[C@@]1(OC(=O)C(NC(Cc2ccc(OC)cc2)=NS(=O)(=O)c2ccc(C)cc2)C(C)C)C(=O)OCc2c1cc1n(c2=O)Cc2cc3ccccc3nc2-1 (stereo partly drawn) [Compound 9e] | 1000 ± 110 nM | 1700 ± 140 nM | 11000 ± 480 nM | 1500 ± 110 nM | –
CC[C@@]1(OC(=O)C(Cc2ccccc2)NC(Cc2ccc(OC)cc2)=NS(=O)(=O)c2ccc(C)cc2)C(=O)OCc2c1cc1n(c2=O)Cc2cc3ccccc3nc2-1 (stereo partly drawn) [Compound 9k] | 120 ± 10 nM | 220 ± 25 nM | 850 ± 24 nM | 120 ± 1.9 nM | –
CC[C@@]1(OC(=O)CNC(Cc2ccc(OC)cc2)=NS(=O)(=O)c2ccc(C)cc2)C(=O)OCc2c1cc1n(c2=O)C(C)c2cc3ccccc3nc2-1 (stereo partly drawn) [#10] | – | – | – | – | IC50 [4, 6]: 1650 ± 90.8 nM; IC50 (SKOV3 (Ovary cancer); [7]): 132 ± 24.2 nM; IC50 (HCT 116 (Colon cancer); [8]): 2090 ± 96.1 nM; IC50 (A549 (Lung cancer); [9]): 2810 ± 416 nM
CCc1c2c(nc3ccccc13)-c1cc3c(c(=O)n1C2)COC(=O)[C@@]3(CC)OC(=O)CNC(Cc1ccc(OC)cc1)=NS(=O)(=O)c1ccc(C)cc1 [Wcpt-03] | – | – | – | – | IC50 ([4]; Table 6, read-out: In vitro cytotoxicity MDA-MB-468 (Breast cancer)): 17.7 ± 3.2 nM; IC50 (SKOV3 (Ovary cancer); Table 6, read-out: In vitro cytotoxicity SKOV3 (Ovary cancer)): 8.08 ± 1.67 nM; IC50 (HCT 116 (Colon cancer); Table 6, read-out: In vitro cytotoxicity HCT 116 (Colon cancer)): 208 ± 4.79 nM; IC50 (A549 (Lung cancer); Table 6, read-out: In vitro cytotoxicity A549 (Lung cancer)): 48.3 ± 1.72 nM
CCc1c2c(nc3ccc(O)cc13)-c1cc3c(c(=O)n1C2)COC(=O)[C@]3(O)CC [SN-38] | – | – | – | – | Inhibition of Topo I activity (relaxation/nicking of supercoiled plasmid DNA) [5]: inhibited Topo I activity
CCC(C)C(NC(Cc1ccccc1)=NS(=O)(=O)c1ccc(C)cc1)C(=O)O[C@]1(CC)C(=O)OCc2c1cc1n(c2=O)Cc2cc3ccccc3nc2-1 (stereo partly drawn) [Compound 9j] | 6500 ± 430 nM | 11000 ± 750 nM | 11000 ± 1000 nM | 8200 ± 610 nM | –
CC[C@@]1(OC(=O)C(C)NC(Cc2ccccc2)=NS(=O)(=O)c2ccc(C)cc2)C(=O)OCc2c1cc1n(c2=O)Cc2cc3ccccc3nc2-1 (stereo partly drawn) [Compound 9d] | 71 ± 6.9 nM | 150 ± 22 nM | 220 ± 17 nM | 96 ± 9.4 nM | –
CCc1c2c(nc3ccc(O)cc13)-c1cc3c(c(=O)n1C2)COC(=O)[C@@]3(CC)OC(=O)CNC(Cc1ccc(OC)cc1)=NS(=O)(=O)c1ccc(C)cc1 [Compound Wcpt-37] | – | – | – | – | IC50 [4, 6]: 7.54 ± 4.07 nM; IC50 (SKOV3 (Ovary cancer); [7]): 11.6 ± 4.08 nM; IC50 (HCT 116 (Colon cancer); [8]): 55.8 ± 2.05 nM; IC50 (A549 (Lung cancer); [9]): 121 ± 15.8 nM
CC[C@@]1(OC(=O)C(CC(C)C)NC(Cc2ccc(OC)cc2)=NS(=O)(=O)c2ccc(C)cc2)C(=O)OCc2c1cc1n(c2=O)Cc2cc3ccccc3nc2-1 (stereo partly drawn) [Compound 9g] | 950 ± 18 nM | 1600 ± 96 nM | 2700 ± 8.3 nM | 1000 ± 130 nM | –
CCC(C)C(NC(Cc1ccc(OC)cc1)=NS(=O)(=O)c1ccc(C)cc1)C(=O)O[C@]1(CC)C(=O)OCc2c1cc1n(c2=O)Cc2cc3ccccc3nc2-1 (stereo partly drawn) [Compound 9i] | 1200 ± 66 nM | 8300 ± 140 nM | 9600 ± 42 nM | 1700 ± 160 nM | –
CCc1c2c(nc3ccc(OC(=O)N4CCC(N5CCCCC5)CC4)cc13)-c1cc3c(c(=O)n1C2)COC(=O)[C@@]3(CC)OC(=O)CNC(Cc1ccc(OC)cc1)=NS(=O)(=O)c1ccc(C)cc1 [Compound Wcpt-39] | – | – | – | – | IC50 ([4]; Homo sapiens, MDA-MB-468, read-out: In vitro cytotoxicity MDA-MB-468 (Breast cancer)): 6640 ± 497 nM; IC50 (SKOV3 (Ovary cancer); Homo sapiens, SK-OV-3, read-out: In vitro cytotoxicity SKOV3 (Ovary cancer)): 4380 ± 674 nM; IC50 (HCT 116 (Colon cancer); Homo sapiens, HCT-116, read-out: In vitro cytotoxicity HCT 116 (Colon cancer)): 12500 ± 445 nM; IC50 (A549 (Lung cancer); Homo sapiens, A549, read-out: In vitro cytotoxicity A549 (Lung cancer)): 30700 ± 2120 nM
CC[C@@]1(OC(=O)CNC(Cc2ccccc2)=NS(=O)(=O)c2ccc(C)cc2)C(=O)OCc2c1cc1n(c2=O)Cc2cc3ccccc3nc2-1 [Compound 9b] | 57 ± 3.9 nM | 130 ± 11 nM | 180 ± 0.8 nM | 100 ± 7.3 nM | –
CC[C@@]1(OC(=O)C(NC(Cc2ccccc2)=NS(=O)(=O)c2ccc(C)cc2)C(C)C)C(=O)OCc2c1cc1n(c2=O)Cc2cc3ccccc3nc2-1 (stereo partly drawn) [Compound 9f] | 1300 ± 120 nM | 2000 ± 250 nM | 11000 ± 280 nM | 2200 ± 56 nM | –
CC[C@@]1(OC(=O)CNC(Cc2ccc(F)cc2)=NS(=O)(=O)c2ccc(C)cc2)C(=O)OCc2c1cc1n(c2=O)Cc2cc3ccccc3nc2-1 [#11] | – | – | – | – | IC50 [4, 6]: 49.7 ± 6.53 nM; IC50 (SKOV3 (Ovary cancer); [7]): 31.1 ± 6.05 nM; IC50 (HCT 116 (Colon cancer); [8]): 71.9 ± 2.59 nM; IC50 (A549 (Lung cancer); [9]): 123 ± 9.1 nM
CC[C@@]1(OC(=O)C(CC(C)C)NC(Cc2ccccc2)=NS(=O)(=O)c2ccc(C)cc2)C(=O)OCc2c1cc1n(c2=O)Cc2cc3ccccc3nc2-1 (stereo partly drawn) [Compound 9h] | 890 ± 39 nM | 1100 ± 16 nM | 4400 ± 420 nM | 1800 ± 30 nM | –
CC[C@@]1(OC(=O)CNC(Cc2ccc(OC)cc2)=NS(=O)(=O)c2ccc(C)cc2)C(=O)OCc2c1cc1n(c2=O)Cc2cc3c(CN4CCN(C)CC4)c(O)ccc3nc2-1 [#9] | – | – | – | – | IC50 [4, 6]: 871 ± 44.9 nM; IC50 (SKOV3 (Ovary cancer); [7]): 1700 ± 279 nM; IC50 (HCT 116 (Colon cancer); [8]): 458 ± 46.3 nM; IC50 (A549 (Lung cancer); [9]): 13200 ± 1090 nM
